According to patent US20200337304A1, “ANTIMICROBIAL PARTICLES AND SANITIZATION METHODS” (priority 2017, published 2020):

Experiments:
Listeria innocua = assay: Inactivation of bacteria in simulated wash water; format: cell-based
Method: The activity and inactivation of bacteria in simulated wash water exposed to the functionalized particles and conventional chlorine sanitizers were evaluated and compared. More than a 5-log reduction of Listeria innocua in wash water was obtained after a 0.5-min exposure to YCWPs based sanitizer at the concentration of 0.1 mg/mL. In comparison, the conventional chlorine-based sanitizer (sodium hypochlorite) needed 1.5 min to achieve a 5-log reduction. In the presence of organic matter (COD=2000 mg/L), more than 5 log reduction of Listeria innocua in wash water was obtained after 5 min exposure to YCWPs based sanitizer.

L. innocua 3-day biofilm = assay: Inactivation of 3-day cultured biofilm on plastic surface, plate counting assay; format: cell-based, Listeria innocua; conditions: 1-hour exposure
Method: FIG. 6A is a graph illustrating inactivation of L. innocua in 3-day biofilm after 1-hour exposure: (a) metabolic activity of biofilm; (b) results of plate counting assay
The antimicrobial activity was characterized based on the metabolic activity of the biofilm measured using Resazurin and a plate counting assay.
The metabolic activity of biofilm after a 1-hour exposure to the particulate sanitizer was evaluated. The time required to achieve maximum fluorescence intensity indicated the relative level of metabolic activity of bacterial cells under different incubation conditions. Listeria biofilms that were incubated with PBS were treated as a control. […] The conventional sanitizer (sodium hypochlorite) only achieved 3-log reduction after a 1-hour exposure.
Pre-formed biofilms were treated with either a selected particle-based sanitizer or with a conventional sanitation procedure for the sanitation of a food contract surface. […] Quantification of the treatment was assessed based on measuring the changes in the metabolic activity of bacterial cells. Quantification of the residual biomass was conducted using crystal violet staining and calcofluor labeling and the standard plate counting of the bacterial cells after dispersing the biofilms using an ultrasonic washer.

E. coli O157:H7 = assay: Inactivation of bacteria on fresh produce (lettuce leaf) surfaces; format: cell-based, Escherichia coli O157:H7; conditions: Example 2; 20-min exposure, YCWPs@halamine 0.25 mg/ml; sodium hypochlorite 20 ppm free chlorine
Method: FIG. 6B is a graph illustrating inactivation of E. coli O157:H7 on fresh produce surfaces after 20-min exposure to YCWPs@halamine (0.25 mg/ml).
The inactivation of bacteria on fresh produce surfaces was also evaluated. These YCWPs based sanitizer was also found to be effective in causing more than 5 log reductions in E. coli O157:H7 on the surface of lettuce leaves as shown in FIG. 6B. The conventional chlorine-based sanitizer (sodium hypochlorite, 20 ppm free chlorine) achieved less than 2-log reduction of the inoculated bacteria.
To inoculate fresh produce, samples (e.g., spinach, lettuce, tomato, and orange) were first rinsed with 70% ethanol and dried at 25° C. before sample preparation. Fresh produce samples were then prepared by cutting spinach and lettuce leaves into disks with 1 cm of diameter and tomato and orange skins into squares of 9 cm^2. […]
After inoculation and incubation, the meat and fresh produce samples were transferred to a simulated wash bath with added particle-based sanitizers. […] The samples were stirred in a shaking bath a speed of 250 rpm for a pre-determined period (1, 2, 5, and 10 min). […]
To quantify the reduction in microbial count, the samples after treatment were transferred to sterile tubes containing silicon-carbide beads and 10 mL of PBS, and vortexed for 60 seconds to recover the attached bacteria. […]

SMILES: OCl [sodium hypochlorite]
- reduction of bacterial population in wash water in the presence of organic matter (Listeria innocua; COD=2000 mg/L, 20 ppm free chlorine, 20 minutes of exposure): did not reduce the bacterial population
- time needed to achieve a 5-log reduction of Listeria innocua in wash water (Listeria innocua; simulated wash water): 1.5 min
- reduction of the bacterial population in the 3-day biofilm (L. innocua 3-day biofilm): 3 log
- reduction in E. coli O157:H7 on the surface of lettuce leaves (E. coli O157:H7): less than 2 log
